Results reported in patent US8716296B2 (Ingenium Pharmaceuticals GmbH, priority 2007, dated 2014).

Experiments:
[1] = system: LPS induced mice; assay: LPS in vivo assay, model of cytokine repression in vivo; parameters: species or system mice (strain C3HeB/FeJ); settings: 10 or 30 mg/kg i.p. 30 min prior to LPS, blood 90 min after LPS, ELISA, versus vehicle
Method: For the LPS induced model of septic shock, mice receive an intraperitoneal (i.p.) injection of 30 μg bacterial Lipopolysaccharide (LPS; L2630 SIGMA) in saline. Said LPS-mediated initiation of the inflammatory signalling cascade results in increasing blood serum concentrations of cytokines such as e.g. TNFα, IL-6 and IL1β. Blood can be taken from these animals at defined time points. Thereafter, serum will be separated and the samples can be stored at −80° C. until cytokine concentrations are measured using commercial ELISA assays. (A L Moreira et al., Braz J Med Biol Res 1997; 30:1199-1207).
Wildtype mice (strain C3HeB/FeJ) (age, sex and weight matched) were injected with 30 μg LPS (SIGMA) intraperitoneally. 90 minutes after LPS administration these animals were anaesthetized with 0.1 m1/10 g bodyweight Ketamine-Rompun (50/20 mg/ml), and blood for serum preparation was taken via cardiac puncture.
Pharmacological treatment groups (n=4) of LPS mice received intraperitoneal (i. p.) injections of CDK-inhibiting compounds or the vehicle (negative control), respectively. In particular, compounds #1A and 16A were administered.
10 or 30 mg/kg (compound per bodyweight) of a CDK inhibitor, dissolved in 20% DMSO, 5% Tween 80, 10% Tris 1M pH8, 20% PEG400, 45% PBS was administered as a single dosage 30 min prior to LPS stimulation. Vehicle control was administered in the same manner.
90 minutes (min) after LPS stimulation, blood samples were taken from the mice. Previously, the 90 min time point had been identified as the peak of TNF alpha expression in this animal model by a time course experiment.
Blood samples (˜500 μl/animal) from the LPS animals were incubated on wet ice for 30 min after cardiac puncture. Afterwards the samples were centrifuged for 15 min at 13.000 rpm. Serum was separated from the clot and stored frozen at −80° C.
Serum concentrations of TNF alpha and IL6 within the samples were measured by using commercial ELISA Kits (Natutec) according to the manufacturers instructions.

[2] = system: LPS induced THP-1 macrophages; assay: In vitro THP-1 assay, model of cytokine inhibition; assay type: cell-based, human; settings: differentiated THP-1 cells, 60 min pre-incubation, LPS 4-48 h, ELISA, versus vehicle (DMSO)
Method: The human THP-1 cell line can be utilized as an in vitro model of cytokine expression as mediated by Lipopolysaccharide (LPS) or Tumor Necrosis Factorα [TNFα].
Monocytic THP-1 cells (ATCC; TIB-202) can be differentiated into macrophage-like cells expressing pro-inflammatory cytokines like TNFα, IL6 and IL1β upon induction with LPS or by TNFα (autocrine induction) itself.
THP-1 cells are grown in modified RPMI-1640 medium (ATCC, Cat. No. 30-2001) supplemented with 10% FCS and 1% Pen/Strep. For cytokine inhibition assays, cells are seeded at a density of 5×10^5 cells/ml into 6-well plates in standard growth medium supplemented with 100 ng/ml PMA (Sigma, P1585) to induce differentiation into macrophage-like cells. After 24 hours, the medium is replaced with standard growth medium (without PMA) and the cells are incubated for another 48 hours to complete differentiation.
After 72 h of differentiation, the medium is replaced with serum free growth medium, and CDK-inhibiting compounds as well as reference compounds such as positive and negative controls, each dissolved in DMSO are added at concentrations ranging from 0.5 to 5 μM (final concentration of DMSO in the well is 0.1%). Cells are incubated for 60 min with compounds prior to stimulation with 100 ng/ml LPS (Sigma, L2630) for another 4-48 hours. Supernatants are collected and assayed immediately for cytokine expression, e.g. for TNFα, IL-6 and IL-1b using commercially available sandwich ELISA assays (eBioscience, Cat. No 88-7346, 88-7066, 88-7010) or kept frozen at […] until evaluation.
Concentrations of TNFα, IL6 and IL1β within the cell culture supernatants are measured by using commercial ELISA Kits (eBioscience) according to the manufacturers instructions.
CDK-inhibitory compounds #1A, 16A, 20A, and 25A were administered to differentiated THP-1 cells in triplicates as described above (see section 2.). After 60 min of pre-incubation with test or reference compound (SB203580, a p38 inhibitor and BMS345541, an IKK-inhibitor) alone, cells were stimulated with LPS. After incubation for 4-48 h, supernatants were collected and ELISA based determinations of cytokine supernatant concentrations were performed as described in section 3, supra.

[3] = system: SNI mice; assay: Spared nerve injury (SNI) model of chronic neuropathic pain, von Frey assay; assay type: in vivo, mice (strain C3HeB/FeJ); settings: 30 mg/kg p.o., 30 min before measurement, day 107 post SNI, versus vehicle
Description: As outlined above, the spared nerve injury (SNI) model (see FIG. 1) involves a lesion of two of the three terminal branches of the sciatic nerve (tibial and common peroneal nerves) of experimental animals, leaving the sural nerve intact. SNI results in mechanical and thermal allodynia in the non-injured sural nerve skin territory (Decosterd and Woolf, Pain 2000; 87:149-158. (2) Tsujino et al., Mol. Cel. Neurosci. 2000; 15:170-182).
Wildtype mice (strain C3HeB/FeJ) (age, sex and weight matched) were anesthetized with Hypnorm (0.315 mg/ml fentanyl citrate+10 mg/ml fluanisone; Janssen)/Hypnovel (5 mg/ml midazolam; Roche Applied Sciences)/water at a ratio of 1:1:2 at 4 μl/g prior to surgical preparation. […]
30 mg/kg of a CDK inhibitor, dissolved in 400 μl of 2% Hydroxprolylcellulose; 0.25% Lactic Acid (85% solution) was administered via per oral application 30 min prior to von Frey measurements (mechanical allodynia). […] Reflex nociceptive responses to mechanical stimulation were measured in a von Frey assay 30 min after each injection. […]
Mechanical thresholds of SNI mice were quantified using the up-down method based on Chaplan et al. (1994) and Malmberg and Basbaum (1998). […]

SMILES	IL6 protein concentration in the blood serum [1]	TNFα protein concentration in the blood serum [1]	IL6 protein concentration in the cell supernatant [2]	TNFα protein concentration in the cell supernatant [2]	paw withdrawal threshold to mechanical stimulation (von Frey) [3]
CCOc1ccccc1-c1cc(NC(=O)C2CCNCC2)ncn1 [Compound 1A, Piperidine-4-carboxylic acid [6-(2-ethoxy-phenyl)-pyrimidin-4-yl]-amide]	significant repressive effect	significant repressive effect	significant inhibitory effect	significant inhibitory effect	
COc1ccccc1-c1cc(NC(=O)C2CCCNC2)ncn1 (stereo not drawn) [Compound 16A, Piperidine-3-carboxylic acid [6-(2-methoxy-phenyl)-pyrimidin-4-yl]amide]	significant repressive effect	significant repressive effect	significant inhibitory effect	significant inhibitory effect	significant increase of threshold values
